Tests used:
c-Rel protein = target: T1, c-Rel protein (Homo sapiens, UniProt Q04864); assay: Electrophoretic Mobility Shift Assay (EMSA), c-Rel binding to CD28RE oligonucleotide; conditions: 10 nM c-Rel protein
T1 sequence (Q04864 1-619): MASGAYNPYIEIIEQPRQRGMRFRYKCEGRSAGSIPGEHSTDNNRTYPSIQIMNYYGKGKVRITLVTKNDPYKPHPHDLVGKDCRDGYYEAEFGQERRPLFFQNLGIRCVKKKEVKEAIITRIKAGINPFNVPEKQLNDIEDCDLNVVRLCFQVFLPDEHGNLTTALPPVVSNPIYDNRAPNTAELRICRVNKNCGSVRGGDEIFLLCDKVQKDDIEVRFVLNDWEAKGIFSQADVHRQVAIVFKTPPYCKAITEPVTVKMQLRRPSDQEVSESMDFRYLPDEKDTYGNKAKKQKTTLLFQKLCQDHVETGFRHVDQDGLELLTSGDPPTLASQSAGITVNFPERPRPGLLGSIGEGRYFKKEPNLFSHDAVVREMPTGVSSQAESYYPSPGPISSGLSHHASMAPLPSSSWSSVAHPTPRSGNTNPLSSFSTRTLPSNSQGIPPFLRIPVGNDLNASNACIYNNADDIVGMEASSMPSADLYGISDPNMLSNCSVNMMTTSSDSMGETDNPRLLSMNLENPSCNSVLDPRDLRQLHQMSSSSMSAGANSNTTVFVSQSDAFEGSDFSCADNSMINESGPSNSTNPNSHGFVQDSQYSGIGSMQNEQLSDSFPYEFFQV
Procedure: DNA binding reaction (20 μL) was carried out in 1×DNA Binding Buffer (10 mM Tris, 40 mM NaCl, 1 mM EDTA, 4% glycerol) with 10 nM c-Rel protein and 0.5 ng phosphor-labeled CD28RE oligonucleotide for 10 minutes at room temperature in 96-well plates. Test compounds, in serial dilutions, were added into each well, and further incubated for 15 minutes before loading onto native 5% polyacrylamide gel. Electrophoresis proceeded for 2.5 hours at 160V. Radioactive signals were quantified using Phospho-Imager. IC50 of compounds of example 1 to 75 were determined by quantifying the intensity of Rel/NF-κB inhibition in EMSA using phospho-imager. An example of EMSA data of the present invention is shown for compound 6 in FIG. 2.

T47D = assay: CellTiter-Glo IG50, Example 8, T47D; type: cell-based; conditions: Homo sapiens, 72 hours
Procedure: (§1) Various pancreatic, liver, colon, breast, and stomach cancer cell lines were exposed to the NF-κB inhibitors of the present invention, including, for example, IT-839, IT-843, IT-848, and IT-878, and assessed for IG50 in the CellTiter Glo 2.0 assay.
(§2) The cells were cultured in an atmosphere of 37° C., 5% CO2 and 95% humidity. All culture media and FBS were purchased from GIBCO, Hyclone or Sigma, USA. The media used for cell culture is described in the table below.
(§3) The cells were harvested during the logarithmic growth period and counted. Cell concentrations were adjusted to the appropriate number in appropriate medium and 90 μl cell suspensions were added to 96-well plates. When cells were added, the plates were shaken gently to distribute the cells evenly. Cells were incubated at 37° C. and 5% CO2.
(§4) 3× serial dilutions of test compound stock solutions with respective solvents were prepared. The stock solutions were diluted with culture medium to generate 10× working solutions of the test compounds. 10 μl of the 10× test compound solutions were added to each well in triplicate for each concentration. Plates were incubated for 72 hours in a humidified incubator at 37° C. and 5% CO2.
(§5) CellTiter-Glo (CTG) solution was thawed and equilibrated to room temperature. 50 μl of CTG were added to each well and the contents were mixed for 2 minutes on a plate shaker. Cells were incubated for 10 minutes before luminescence signal was recorded using Envision.
(§6) Cell viability was plotted with GraphPad Prism version 5 and the IG50 was calculated for each cell line. The graphical curves were fitted using a nonlinear regression model with a sigmoidal dose response. IG50 is the concentration of test drug where 100×T/C=50 (the optical density of the test well after a 3-day period of exposure to test drug is T; the control optical density is C).

Hep3B = assay: CellTiter-Glo IG50, Example 8, Hep3B; type: cell-based; conditions: Homo sapiens, 72 hours
Procedure: as §1, §2, §3, §4, §5, §6

HT-29 = assay: CellTiter-Glo IG50, Example 8, HT-29; type: cell-based; conditions: Homo sapiens, HT-29, 72 hours
Procedure: as §1, §2, §3, §4, §5, §6

LoVo = assay: CellTiter-Glo IG50, Example 8, LoVo; type: cell-based; conditions: Homo sapiens, 72 hours
Procedure: as §1, §2, §3, §4, §5, §6

MCF-7 = assay: CellTiter-Glo IG50, Example 8, MCF-7; type: cell-based; conditions: Homo sapiens, MCF7, MCF-7, 72 hours
Procedure: as §1, §2, §3, §4, §5, §6

MDA-MB-231 = assay: CellTiter-Glo IG50, Example 8, MDA-MB-231; type: cell-based; conditions: Homo sapiens, MDA-MB-231, 72 hours
Procedure: as §1, §2, §3, §4, §5, §6

PLC/PRF/5 = assay: CellTiter-Glo IG50, Example 8, PLC/PRF/5; type: cell-based; conditions: Homo sapiens, PLC/PRF/5, 72 hours
Procedure: as §1, §2, §3, §4, §5, §6

MKN45 = assay: CellTiter-Glo IG50, Example 8, MKN45; type: cell-based; conditions: Homo sapiens, MKN-45, MKN45, 72 hours
Procedure: as §1, §2, §3, §4, §5, §6

KATO III = assay: CellTiter-Glo IG50, Example 8, KATO III; type: cell-based; conditions: Homo sapiens, 72 hours
Procedure: as §1, §2, §3, §4, §5, §6

HepG2 = assay: CellTiter-Glo IG50, Example 8, HepG2; type: cell-based; conditions: Homo sapiens, HepG2, 72 hours
Procedure: as §1, §2, §3, §4, §5, §6

AGS = assay: CellTiter-Glo IG50, Example 8, AGS; type: cell-based; conditions: Homo sapiens, 72 hours
Procedure: as §1, §2, §3, §4, §5, §6

PANC-1 = assay: CellTiter-Glo IG50, Example 8, PANC-1; type: cell-based; conditions: Homo sapiens, PANC-1, 72 hours
Procedure: as §1, §2, §3, §4, §5, §6

MIAPACA-2 = assay: CellTiter-Glo IG50, Example 8, MIAPACA-2; type: cell-based; conditions: Homo sapiens, MIA PaCa-2, MIAPACA-2, 72 hours
Procedure: as §1, §2, §3, §4, §5, §6

Capan-1 = assay: CellTiter-Glo IG50, Example 8, Capan-1; type: cell-based; conditions: Homo sapiens, Capan-1, 72 hours
Procedure: as §1, §2, §3, §4, §5, §6

HCT116 = assay: CellTiter-Glo IG50, Example 8, HCT116; type: cell-based; conditions: Homo sapiens, HCT-116, HCT116, 72 hours
Procedure: as §1, §2, §3, §4, §5, §6

COCCCCOc1ccc2cc3c(=O)[nH]c(=O)nc-3oc2c1 [compound 67]
IC50 (c-Rel protein): < 1 µM

CC(C)COc1ccc2cc3c(=O)[nH]c(=O)nc-3oc2c1 [compound 23, 8-isobutoxy-2H-chromeno[2,3-d]pyrimidine-2,4(3H)-dione]
IC50 (c-Rel protein): < 1 µM

O=C(O)COc1ccc2cc3c(=O)[nH]c(=O)nc-3oc2c1Cl [compound 56]
IC50 (c-Rel protein): < 5 µM

CCCOc1ccc2cc3c(=O)[nH]c(=O)nc-3oc2c1 [compound 19, 8-propoxy-2H-chromeno[2,3-d]pyrimidine-2,4(3H)-dione]
IC50 (c-Rel protein): < 1 µM

O=c1[nH]c(=S)nc2oc3cc(O)ccc3cc1-2 [compound 16, 8-hydroxy-2-thioxo-2H-chromeno[2,3-d]pyrimidin-4(3H)-one]
IC50 (c-Rel protein): < 0.5 µM

COc1ccc2cc3c(=O)[nH]c(=O)nc-3oc2c1 [compound 6, 8-methoxy-2H-chromeno[2,3-d]pyrimidine-2,4(3H)-dione]
IC50 (c-Rel protein): < 1 µM

CC(=O)OCCCCOc1ccc2cc3c(=O)[nH]c(=O)nc-3oc2c1Cl [compound 60, 4-((9-chloro-2,4-dioxo-3,4-dihydro-2H-chromeno[2,3-d]pyrimidin-8-yl)oxy)butyl acetate]
IC50 (c-Rel protein): < 5 µM

CCCOc1cc2oc3nc(=O)[nH]c(=O)c-3cc2cc1Cl [compound 20, 7-chloro-8-propoxy-2H-chromeno[2,3-d]pyrimidine-2,4(3H)-dione]
IC50 (c-Rel protein): < 1 µM

CC(C)CCCOc1ccc2cc3c(=O)[nH]c(=O)nc-3oc2c1F [compound 47]
IC50 (c-Rel protein): < 1 µM

COCCOCCCOc1cc2oc3nc(=O)[nH]c(=O)c-3cc2cc1F [compound 75, 7-fluoro-8-(3-(2-methoxyethoxy)propoxy)-2H-chromeno[2,3-d]pyrimidine-2,4(3H)-dione]
IC50 (c-Rel protein): < 1 µM

CC(C)CCCOc1cc2oc3nc(=O)[nH]c(=O)c-3cc2cc1F [IT-839]
IC50 (T47D): > 16 µM
IC50 (Hep3B): 3.35 µM
IC50 (HT-29): > 16 µM
IC50 (LoVo): 4.34 µM
IC50 (MCF-7): > 16 µM
IC50 (MDA-MB-231): 2.01 µM
IC50 (PLC/PRF/5): > 16 µM
IC50 (MKN45): > 16 µM
IC50 (KATO III): > 16 µM
IC50 (HepG2): 10.5 µM
IC50 (AGS): > 16 µM
IC50 (PANC-1): 6.93 µM
IC50 (MIAPACA-2): > 16 µM
IC50 (Capan-1): > 16 µM
IC50 (HCT116): > 16 µM

CC(C)COc1cc2oc3nc(=O)[nH]c(=O)c-3cc2cc1Cl [compound 38]
IC50 (c-Rel protein): < 0.5 µM

CC(C)CCOc1cc2oc3nc(=O)[nH]c(=O)c-3cc2cc1F [compound 33]
IC50 (c-Rel protein): < 0.5 µM

O=c1nc2oc3cc(O)ccc3cc-2c(=O)[nH]1 [compound 11, 8-hydroxy-2H-chromeno[2,3-d]pyrimidine-2,4(3H)-dione]
IC50 (c-Rel protein): < 1 µM
